Data taken from patent US8119647B2, “Fused pyrimidineone compounds as TRPV3 modulators” (Glenmark Pharmaceuticals S.A., priority 2008, dated 2012).

Target: T1, Human TRPV3 (Homo sapiens, UniProt Q8NET8)
T1 construct: expressed in transfected cells; host or cells: CHO cells (G-418 selection)
T1 sequence (Q8NET8 1-790): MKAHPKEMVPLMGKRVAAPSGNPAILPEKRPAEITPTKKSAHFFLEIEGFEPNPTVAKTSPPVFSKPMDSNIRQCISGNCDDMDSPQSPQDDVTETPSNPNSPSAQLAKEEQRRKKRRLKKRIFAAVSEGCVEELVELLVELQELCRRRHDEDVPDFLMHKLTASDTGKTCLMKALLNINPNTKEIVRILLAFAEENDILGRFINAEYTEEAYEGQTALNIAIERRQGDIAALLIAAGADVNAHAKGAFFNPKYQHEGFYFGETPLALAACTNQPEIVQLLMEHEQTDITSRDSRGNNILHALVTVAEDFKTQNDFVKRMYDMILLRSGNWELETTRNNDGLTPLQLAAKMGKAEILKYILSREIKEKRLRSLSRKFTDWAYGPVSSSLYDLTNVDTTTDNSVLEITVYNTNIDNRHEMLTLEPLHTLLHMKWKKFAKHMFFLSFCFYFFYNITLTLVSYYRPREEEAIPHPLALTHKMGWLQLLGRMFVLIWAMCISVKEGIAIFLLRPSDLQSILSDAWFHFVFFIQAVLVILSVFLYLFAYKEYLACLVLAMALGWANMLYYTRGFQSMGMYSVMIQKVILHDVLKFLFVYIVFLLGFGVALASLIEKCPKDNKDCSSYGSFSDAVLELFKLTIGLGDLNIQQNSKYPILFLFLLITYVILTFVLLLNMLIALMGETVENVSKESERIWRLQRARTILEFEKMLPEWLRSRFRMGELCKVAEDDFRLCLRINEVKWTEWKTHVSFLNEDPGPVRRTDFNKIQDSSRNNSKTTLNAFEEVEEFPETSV
Experiment: Screening for TRPV3 antagonist using the 45Calcium uptake assay (inhibition of 2-APB induced cellular uptake of radioactive calcium)
Format: cell-based
Conditions: human TRPV3 expressing CHO cells, 2-APB 500 μM; for Percentage inhibition at 1.0 μM / inhibition at 1 µM: 1.0 μM test compound; for Percentage inhibition at 10.0 μM / inhibition at 10 µM: 10.0 μM test compound; for inhibition at 1 µM: read-out: Percentage inhibition at 1.0 μM; for inhibition at 10 µM: read-out: Percentage inhibition at 10.0 μM; for IC50: class symbols
From the text: The illustrative examples of the present invention are screened for TRPV3 activity according to a modified procedure described in Tóth, A., Kedei, N., Wang, Y. and Blumberg, P. M. Life Sciences (2003), 73, 487-498. The screening of the compounds can be carried out by other methods and procedures known to a person skilled in the art. Such screening methods may be found in (a) Hu, H.-Z. et al. J. Biol. Chem. (2004), 279, 35741-35747; (b) Smith, G. D. et al. Nature (2002), 418, 186-190; (c) Peier, A. M. et al. Science (2002), 296, 2046-2049.
Screening for TRPV3 Antagonist Using the ^45Calcium Uptake Assay:
The inhibition of TRPV3 receptor activation was followed as inhibition of 2-aminoethoxydiphenylborate (2-APB) induced cellular uptake of radioactive calcium. Test compounds were dissolved in dimethyl sulfoxide (DMSO) to prepare 20 mM stock solution and then diluted using plain medium with DMEM/F-12 containing 1.8 mM CaCl2 to get desired concentration. Final concentration of DMSO in the reaction was 0.5% (v/v). Human TRPV3 expressing CHO cells were grown in DMEM/F-12 medium with 10% FBS, 1% penicillin-streptomycin solution, 400 μg/ml of G-418. Cells were seeded 24 h prior to the assay in 96 well plates so as to get ˜50,000 cells per well on the day of experiment. Cells were treated with test compounds for 10 minutes followed by addition of 2-APB at a final concentration of 500 μM and 5 μCi/ml ^45Ca^+2 for 4 minutes. Cells were washed and lysed using buffer containing 1% Triton X-100, 0.1% deoxycholate and 0.1% SDS. Radioactivity in the lysate was measured in Packardt Top count after addition of liquid scintillant. Concentration response curves were plotted as a % of maximal response obtained in the absence of test antagonist. IC50 value was calculated from concentration response curve by nonlinear regression analysis using GraphPad PRISM software.
Percentage inhibition at concentrations of 1.0 μM and 10.0 μM are given in the table along with IC50 (nM) values for selected examples.

Row | inhibition at 1 µM [%] | inhibition at 10 µM [%] | IC50 [nM] | Molecule | Percentage inhibition at 1.0 μM [%] | Percentage inhibition at 10.0 μM [%]
1 |  |  |  | COc1cccc(/C=C/c2nc3sc4ccccc4n3c(=O)c2-c2ccc(C#N)cc2)c1OCCCC#N [Example 83, 4-(2-{(E)-2-[2-(3-Cyanopropoxy)-3-methoxyphenyl}-1-ethenyl}-4-oxo-4H-benzo[4,5]-[1,3]thiazolo-[3,2]pyrimidin-3-yl)benzonitrile] | 23.6 | 57.1
2 | 12 | 69.3 |  | COc1cccc(/C=C/c2nc3sccn3c(=O)c2-c2ccc(O)cc2)c1OCC1CC1 [Example 7, 7-[(E)-2-(2-Cyclopropylmethoxy-3-methoxyphenyl)-1-ethenyl]-6-(4-hydroxyphenyl)-5H-[1,3]thiazolo[3,2-a]pyrimidin-5-one] |  | 
3 | 90.8 | 97.9 | < 250 | COc1cccc(/C=C/c2nc3sccn3c(=O)c2-c2ccc(OC(F)(F)F)cc2)c1OCCC(F)(F)F [Example 70, 7-[(E)-2-{3-Methoxy-2-(2-trifluoromethylethoxy)phenyl}-1-ethenyl]-6-[4-(trifluoromethoxy)phenyl]-5H-[1,3]thiazolo[3,2-a]pyrimidin-5-one] |  | 
4 |  |  |  | O=c1c(-c2ccc(OC(F)(F)F)cc2)c(/C=C/c2cccc(O)c2O)nc2sccn12 [Example 59] | 3.68 | 0.00
5 |  |  |  | 7-[(E)-2-{(3-Cyanopropoxy)-3-methoxy}phenylvinyl]-6-[4-(trifluoromethoxy)phenyl]-5H-[1,3]thiazolo[3,2-a]pyrimidin-5-one [Example 74] | 30.20 | 86.42
6 | 81.9 | 89.8 | < 250 | COc1cccc(/C=C/c2nc3sccn3c(=O)c2-c2ccc(OC(F)(F)F)cc2)c1OCCC(C)C [Example 50, 7-[(E)-2-{2-Isopentyloxy-3-methoxyphenyl}-1-ethenyl]-6-[4-(trifluoromethoxy)phenyl]-5H-[1,3]thiazolo[3,2-a]pyrimidin-5-one] |  | 
7 | 80.2 | 92.2 | < 250 | COc1cccc(/C=C/c2nc3sccn3c(=O)c2-c2ccc(OC(F)(F)F)cc2)c1OCC1CCC1 [Example 67, 7-[(E)-2-{2-Cyclobutylmethoxy-3-methoxyphenyl}-1-ethenyl]-6-[4-(trifluoromethoxy)-phenyl]-5H-[1,3]thiazolo[3,2-a]pyrimidin-5-one] |  | 
8 | 83.8 | 93.7 | 250 to 500 | COCCOc1c(/C=C/c2nc3sc4ccccc4n3c(=O)c2-c2ccc(C#N)cc2)cccc1OC [Example 84, 4-(2-{(E)-2-[3-Methoxy-2-(methoxyethoxy)phenyl}-1-ethenyl}-4-oxo-4H-benzo[4,5]-[1,3]thiazolo-[3,2]pyrimidin-3-yl)benzonitrile] |  | 
9 |  |  |  | COc1cccc(/C=C/c2nc3sccn3c(=O)c2-c2ccc(F)nc2)c1OCC1CC1 [Example 3] | 20.1 | 89.3
10 |  |  |  | 7-[(E)-2-(4-Chlorophenyl)vinyl]-6-phenyl-5H-[1,3]thiazolo[3,2-a]pyrimidin-5-one [Example 1] | 6.9 | 14.4
11 | 72.8 | 95.3 | < 250 | CCCOc1c(/C=C/c2nc3sccn3c(=O)c2-c2ccc(OC(F)(F)F)cc2)cccc1OC [Example 54, 7-[(E)-2-(3-Methoxy-2-propoxyphenyl)-1-ethenyl]-6-[4-(trifluoromethoxy)phenyl]-5H-[1,3]thiazolo[3,2-a]pyrimidin-5-one] |  | 
12 | 76.2 | 90 | < 250 | COc1cccc(/C=C/c2nc3sccn3c(=O)c2-c2ccc(C#N)cc2)c1OCCC(C)C [Example 11, 4-{7-[(E)-2-(2-Isopentyloxy-3-methoxyphenyl)-1-ethenyl]-5-oxo-5H-[1,3]thiazolo[3,2-a]pyrimidin-6-yl}benzonitrile] |  | 
13 | 73.1 | 94.8 | 500 to 1000 | CCOCCOc1c(/C=C/c2nc3sccn3c(=O)c2-c2ccc(C#N)cc2)cccc1OC [Example 15, 4-{7-[(E)-2-(2-Ethoxyethoxy-3-methoxyphenyl]-1-ethenyl}-5-oxo-5H-[1,3]thiazolo[3,2-a]pyrimidin-6-yl}benzonitrile] |  | 
14 | 89.9 | 95.9 | < 250 | CCOCCOc1c(/C=C/c2nc3sccn3c(=O)c2-c2ccc(OC(F)(F)F)cc2)cccc1OC [Example 53, 7-[(E)-2-{2-(2-Ethoxyethoxy)-3-methoxyphenyl}-1-ethenyl]-6-[4-(trifluoromethoxy)phenyl]-5H-[1,3]thiazolo[3,2-a]pyrimidin-5-one] |  | 
15 | 74.8 | 92.9 | 250 to 500 | CCCCCOc1c(/C=C/c2nc3sccn3c(=O)c2-c2ccc(C#N)cc2)cccc1OC [Example 10, 4-{7-[(E)-2-(3-Methoxy-2-pentyloxyphenyl)-1-ethenyl]-5-oxo-5H-[1,3]-thiazolo[3,2-a]pyrimidin-6-yl}benzonitrile] |  | 
16 | 63.4 | 94 | 500 to 1000 | COc1ccc(-c2c(/C=C/c3cccc(OC)c3OCC3CC3)nc3sccn3c2=O)cc1 [Example 43, 7-[(E)-2-(2-Cyclopropylmethoxy-3-methoxyphenyl)-1-ethenyl]-6-(4-methoxy-phenyl)-5H-[1,3]thiazolo[3,2-a]pyrimidin-5-one] |  | 
17 | 10.4 | 73.1 | 1000 to 10000 | COc1cccc(/C=C/c2nc3sccn3c(=O)c2-c2ccccc2)c1OCC1CC1 [Example 2, 7-{(E)-2-[2-(Cyclopropylmethoxy)-3-methoxyphenyl]vinyl}-6-phenyl-5H-[1,3]thiazolo[3,2-a]pyrimidin-5-one] |  | 

Row | Molecule | inhibition at 1 µM [%] | inhibition at 10 µM [%] | IC50 [nM] | Percentage inhibition at 1.0 μM [%] | Percentage inhibition at 10.0 μM [%]
18 | CCCCOc1c(/C=C/c2nc3sccn3c(=O)c2-c2ccc(OC(F)(F)F)cc2)cccc1OC [Example 57, 7-[(E)-2-(2-Butoxy-3-methoxyphenyl)-1-ethenyl]-6-[4-(trifluoromethoxy)phenyl]-5H-[1,3]thiazolo[3,2-a]pyrimidin-5-one] | 79.4 | 91.9 | < 250 |  | 
19 | CCOCCOc1c(/C=C/c2nc3sccn3c(=O)c2-c2ccc(C(F)(F)F)cc2)cccc1OC [Example 32, {7-[(E)-2-(2-Ethoxyethoxy)-3-methoxy)phenyl-1-ethenyl]-6-[4-(trifluoromethyl)phenyl]-5H-[1,3]thiazolo[3,2-a]pyrimidin-5-one] |  |  | 250 to 500 | 89.3 | 97.7
20 | COc1cccc(/C=C/c2nc3sccn3c(=O)c2-c2ccc(OC(F)(F)F)cc2)c1OCCCCF [Example 56, 4-7-[(E)-2-{2-(4-Fluorobutoxy)-3-methoxyphenyl}-1-ethenyl]-6-[4-(trifluoromethoxy)phenyl]-5H-[1,3]thiazolo[3,2-a]pyrimidin-5-one] |  |  | 250 to 500 | 80.9 | 93.5
